In the OPERA property sets (Mansouri et al. 2018) one finds logP data, which are given here for 106 compounds.

Each structure is given as a SMILES string.

Turning to `CNC(=O)Oc1ccc(N(C)C)c(C)c1`, the logP (commonly the decadic logarithm of the partition coefficient of the neutral form, usually between octanol and water) came out at 1.9.
The figure for `CCC(C(=O)NC(N)=O)(C(=O)OC)c1ccccc1` (stereo unspecified) is 1.58.
Regarding `CNCCCN1c2ccccc2Sc2ccc(Cl)cc21`, the logP stood at 4.94.
`CCC(CC)C(=O)O`: the logP was found to be 1.68.
The figure for `CC1CC2C3CC(F)C4=CC(=O)C(Cl)=CC4(C)C3(Cl)C(O)CC2(C)C1(O)C(=O)COC(=O)C(C)(C)C` (stereo unspecified) is 4.73; for `CN(C)c1ccc2ccccc2n1` it is 2.81.
`CN1CCC(=C2c3ccccc3C=Cc3ccccc32)CC1` returned a logP of 4.69.
For `CC1(C)NC(=Nc2ncc([N+](=O)[O-])s2)OC1(C)C` the value was 2.4; for `Cc1cccc(C)c1NC(=O)CN`, 0.41; for `CCCNCC(O)COc1ccc(-c2ncc(-c3cccs3)[nH]2)cc1` (stereo unspecified), 2.84.
For `Cc1cnc(NS(=O)(=O)c2ccc(N)cc2)nc1` the value was 0.34; for `CCN(CC)C(=O)c1cccc(C)c1`, 2.18; for `CN(Cc1ccc(Cl)cc1)N=Nc1ccc(C(=O)O)cc1`, 4.85.
Consider `CC(CC(=O)O)CC(=O)c1ccc(-c2ccccc2)cc1` (stereo unspecified), for which the logP is 3.82.
For `NCCc1cnc[nH]1` the value was -0.7; for `O=C1CC(Oc2ccc(C(=O)CCc3ccccc3)cc2)N1` (stereo unspecified), 2.48; for `CCN1CC(C(O)C(CC2CCCCC2)NC(=O)C(Cc2cnc[nH]2)NC(=O)C(Cc2ccc(OC)cc2)NC(=O)N2CC(OCOC)C(OCOC)C2)OC1=O` (stereo unspecified), 2.06.
The figure for `COc1cc(OC)c(Cl)c(Cc2cnc(N)nc2N)c1Cl` is 2.55; for `C=C(C)C(=O)OCC(CC)CCCC` (stereo unspecified) it is 4.54; for `ClC1=C(Cl)C2(Cl)C3C4OC4C(Cl)C3C1(Cl)C2(Cl)Cl` (stereo unspecified) it is 4.98.
The figure for `CC(C)Nc1nc(Cl)nc(NC2CC2)n1` is 3.06; for `CCOC(=O)c1ccc(S(N)(=O)=O)cc1` it is 1.17; for `O=C(Cn1ccnc1[N+](=O)[O-])NC(CO)(CO)CO` it is -1.77.
Regarding `CCCCCCC(C)(C)c1ccc(C2CC(O)CCC2CCCO)c(O)c1` (stereo unspecified), the logP was determined as 6.13.
Consider `COc1ccc(CCNCC(O)COc2ccc(-c3ncc(Cl)[nH]3)cc2)cc1OC` (stereo unspecified), for which the logP was 2.4.
As for `COc1ncnc2c1ncn2C1OC(CO)C(OC(=O)Cc2ccccc2)C1OC(=O)Cc1ccccc1` (stereo unspecified), the logP is 3.48.
For `CC(C)NCC1CCc2cc(CO)c([N+](=O)[O-])cc2N1` (stereo unspecified) the value was 2.24; for `Cc1cccc(C)c1NC(=O)C(C)N(C)C` (stereo unspecified), 1.53.
The compound `C=C(C)C(=O)OCCOCCOCCOC(=O)C(=C)C` had a logP of 1.88.
The figure for `COc1cc(OC)cc(C2C(=O)c3ccccc3C2=O)c1` is 2.86.
For the compound `CCN1CC(C(O)C(CC2CCCCC2)NC(=O)C(Cc2cnc[nH]2)NC(=O)C(CC(=O)N(C)CCOCOC)Cc2ccccc2)OC1=O` (stereo unspecified), the logP was determined as 2.49.
For the compound `CC(=O)Nc1c(I)c(C(=O)N(C)CC(O)CO)c(I)c(C(=O)N(C)CC(O)CO)c1I` (stereo unspecified), the logP is -2.71.
The figure for `CCCOc1ccc(CC(=O)O)cc1` is 2.31; for `CC(N)CC1CCCCC1` (stereo unspecified) it is 2.96; for `O=C(O)c1ccc(Cl)cc1Nc1ccc(Cl)cc1` it is 4.97.
The figure for `CC(=O)NCc1cccc(OCC(O)CNC(C)C)c1` (stereo unspecified) is 0.34.
`CN(C)c1ccc(C(O)(Cn2ccnc2)c2ccc(-c3ccncc3)cc2)cc1` (stereo unspecified) registered a logP of 3.29.
`CCC(C(=O)OCc1ccccc1)C(COC(=O)c1ccccc1)Cc1cncn1C` (stereo unspecified) showed a logP of 4.37.
For `O=C(c1ccc(C(F)(F)F)cc1)c1ccc2n1CCC2C(=O)O` (stereo unspecified) the value was 3.71.
The figure for `Cc1ccccc1OCC(O)CNCCOc1ccc(C(N)=O)cc1` (stereo unspecified) is 2.22.
In the case of `COc1ccc(CCNCC(O)COc2ccc(-c3ncc(C)[nH]3)cc2OC)cc1OC` (stereo unspecified), the logP is 1.89.
The figure for `OC(CN1CCOCC1)(c1ccc(F)cc1)c1ccc(-c2ccncc2)cc1` (stereo unspecified) is 2.82; for `COc1cccc(NC(=O)CN2CCCCC2)c1` it is 2.71.
The figure for `NC1CC1c1ccccc1` (stereo unspecified) is 1.58.
For `COc1ccc(Cc2cnc(N)nc2N)cc1C(C)C`, the logP was 2.79.
For `CC(C)NC(=O)COc1ccc(OCCNCC(O)COc2ccccc2)cc1` (stereo unspecified), the logP was 2.4.
The figure for `O=C(c1c(F)cccc1F)c1ccc2n1CCC2C(=O)O` (stereo unspecified) is 2.47; for `CCc1ccc(C)cc1` it is 3.63.
The figure for `OC1c2ccccc2C2CCCCC2C1O` (stereo unspecified) is 2.47; for `CCCOC(=O)C(C(=O)OCCC)=C1SCCS1` it is 3.35.
The compound `CCCCCCCCc1ccc(C2C(=O)c3ccccc3C2=O)cc1` returned a logP of 6.93.
On to `C=CCC(NC(=O)C(Cc1ccccc1)NS(=O)(=O)N1CCOCC1)C(=O)NC(CC1CCCCC1)C(=O)C(F)(F)C(=O)NCCN1CCOCC1` (stereo unspecified), for which the logP amounted to 3.39.
For the compound `CC1OC(OC2CCC3(C=O)C4CCC5(C)C(C6=CC(=O)OC6)CCC5(O)C4CCC3(O)C2)C(O)C(O)C1O` (stereo unspecified), the logP was -0.48.
For `CCC1(c2ccccc2)C(=O)N=C(OC(C)C)NC1=O` (stereo unspecified) the value was 1.79; for `O=C(O)Cc1ccc(C2CCCC2)cc1`, 3.44; for `O=C(O)C=COc1ccccc1Cl`, 2.69.
In turn, `CCOC(=O)Cn1nnc2ccccc21` displayed a logP of 1.3.
`Cc1cccc(C)c1NC(=O)CCCC(C)N` (stereo unspecified): the logP is 1.41.
`CCc1ccc(CC(=O)O)cc1` came in with a logP of 2.25.
In turn, `CC(=O)O[C@H]1C[C@H](O[C@H]2[C@@H](O)C[C@H](O[C@H]3[C@@H](O)C[C@H](O[C@H]4CC[C@@]5(C)[C@H](CC[C@@H]6[C@@H]5C[C@@H](O)[C@]5(C)[C@@H](C7=CC(=O)OC7)CC[C@]65O)C4)O[C@@H]3C)O[C@@H]2C)O[C@H](C)[C@H]1O` gave a logP of 1.97.
For `O=C1CCc2ccccc2N1` the value was 1.34; for `C=C(C)C(=O)OC1CC2=CC(CC3(C)OC3C3OC(=O)C(=C)C13)OC2=O` (stereo unspecified), 0.69.
In turn, `CCCCOCC(O)Cn1ccnc1[N+](=O)[O-]` (stereo unspecified) returned a logP of 1.11.
For `Cn1c([N+](=O)[O-])cnc1/C=C/c1ccnc(N)n1` the value was 0.85.
The figure for `CCC(N)C(=O)Nc1c(C)cccc1C` (stereo unspecified) is 0.84.
The figure for `O=[N+]([O-])c1cc(F)cc(F)c1` is 2.03; for `Clc1ccc(Cl)c(-c2ccccc2)c1` it is 5.1.
Consider `Nc1cccc(I)c1`, for which the logP came to 2.86.
Regarding `OC(Cn1ccnc1)(c1ccc(-c2ccccn2)cc1)c1ccc(F)cc1F` (stereo unspecified), the logP was 3.65.
The figure for `CC1(C)CC(N)CC(C)(C)N1O` is 0.56; for `CC1OC(OC2CCC3(C)C(CCC4C3CC(O)C3(C)C(C5=CC(=O)OC5)CCC43O)C2)CC(O)C1O` (stereo unspecified) it is 1.09.
The figure for `CCCCNC(=O)NS(=O)(=O)c1ccc(N)cc1` is 1.01; for `O=C1c2ccccc2C(=O)C1c1cccc(C(F)(F)F)c1` it is 3.78; for `CCCCCCCCCC[N+](C)(C)C.[I-]` it is -0.16.
Take `O=C(NC1CCCCC1)NS(=O)(=O)c1ccc(Cl)cc1`: the logP amounted to 3.38.
As to `O=C(O)c1ccc(Cl)cc1Nc1ccccc1`, the logP was 4.25.
For `Nc1ccn([C@H]2C=C[C@@H](CO)O2)c(=O)n1` the value was -1.55.
For `CCCc1ccc(N)cc1` the value was 2.4; for `Cc1ccc(S(=O)(=O)NC(=O)Nc2ccccc2)cc1`, 3.11.
The figure for `CC(C)NCC(O)COc1cccc(CC(N)=O)c1` (stereo unspecified) is 0.22; for `Cc1cc(C)cc(NS(=O)(=O)c2ccc(N)cc2)c1` it is 2.52.
With `CC1(C)[C@@H](O[C@H]2O[C@H](C(=O)O)[C@@H](O)[C@H](O)[C@H]2O[C@@H]2O[C@H](C(=O)O)[C@@H](O)[C@H](O)[C@H]2O)CC[C@]2(C)[C@H]3C(=O)C=C4[C@@H]5C[C@@](C)(C(=O)O)CC[C@]5(C)CC[C@@]4(C)[C@]3(C)CC[C@@H]12`, the logP was found to be 2.8.
The figure for `C=C(C)C(=O)OCCCOC(=O)C(=C)C` is 1.86.
The figure for `CO[C@@]1(NC(=O)Cc2cccs2)C(=O)N2C(C(=O)O)=C(COC(N)=O)CS[C@@H]21` is -0.02.
For `CCNC(C)Cc1cccc(C(F)(F)F)c1` (stereo unspecified) the value was 3.36; for `CC(C)Oc1ccc(C(=O)c2ccc3n2CCC3C(=O)O)cc1` (stereo unspecified), 3.38; for `CCNCC(=O)Nc1c(C)cccc1C`, 1.32.
`O=C1NC(=O)c2cc(-c3ccccc3)ccc21` yielded a logP of 2.97.
`Cc1ncc(NS(=O)(=O)c2ccc(N)cc2)c(C)n1`: the logP worked out at 0.59.
The figure for `CCCCCC(=O)OCC(Cc1cncn1C)C(CC)C(=O)OCc1ccccc1` (stereo unspecified) is 4.75; for `CCCCCCCCCCOc1ccc(C(=O)O)cc1` it is 6.29.
With `COCc1ccc(C#N)cc1`, the logP is 1.23.
The figure for `CCCCCCC(C)(C)c1cc(O)c2c(c1)OC(C)(C)[C@@H]1CC=C(CO)C[C@@H]21` is 7.44.
For `CCN1CC(C(O)C(CC2CCCCC2)NC(=O)C(Cc2cscn2)NC(=O)C(CC(=O)N2CCOCC2)c2ccccc2)OC1=O` (stereo unspecified) the value was 2.83; for `CCOC(=O)c1cnc(-c2ccc(OCC(O)CNCCc3ccc(OC)c(OC)c3)cc2)[nH]1` (stereo unspecified), 2.3.
The figure for `CC1CC(C)(C)CC(c2ccccc2)(N2CCCCC2)C1` (stereo unspecified) is 6.35.
For the compound `O=C(O)CCC(=O)c1ccccc1`, the logP worked out at 1.3.
For `O=c1[nH]nc(-c2ccccc2)c2ccccc12` the value was 2.48; for `CCN1CC(C(O)C(CC2CCCCC2)NC(=O)C(Cc2c[nH]cn2)NC(=O)C(Cc2ccc(OC)cc2)NC(=O)N2CC(OCOCCOC)C(OCOCCOC)C2)OC1=O` (stereo unspecified), 1.67; for `CCS[C@@H]1O[C@H](CO)[C@H](O)[C@H](O)[C@H]1O`, -1.51.
`OC1(c2ccc(Cl)cc2)CCCCCC1n1cncn1` (stereo unspecified) registered a logP of 3.54.
The figure for `COc1c(OC)c(OC(C)=O)c2cc(NC(C)=O)ccc2c1OC(C)=O` is 2.
The figure for `O=C1C2C3C=CC(C3)C2C(=O)N1CCCCN1CCN(c2ncccn2)CC1` (stereo unspecified) is 1.36.
The figure for `COc1ccc(Cc2cnc(N)nc2N)cc1N(C)C` is 1.68; for `CCOC(=O)c1cccc(O)c1` it is 2.47.
Regarding `CC12CCC(=O)C=C1CCC1C3CCC4(CCC(=O)O4)C3(C)CC(O)C12F` (stereo unspecified), the logP was determined as 2.4.
